The values that follow come from patent US20250197403A1, “HETEROARYL COMPOUNDS FOR TREATMENT OF COMPLEMENT FACTOR D MEDIATED DISORDERS” (Achillion Pharmaceuticals, Inc., priority 2020, published 2025).

Some results are limits rather than exact numbers.

The target of this test is Human Factor D (Homo sapiens (Human), UniProt P00746). In words: Human Factor D Assay. In kind it is biochemical. The conditions noted are these: Human Factor D 80 nM, substrate Z-L-Lys-SBzl, assay according to Example 3. An outline of the steps:
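Serum-purified factor D (80 nM final) preincubated with compound 5 min at room temperature in 50 mM Tris, 1M NaCl, pH 7.5. Z-L-Lys-SBzl substrate and DTNB added at 100 μM each; A405 read every 30 s for 30 min. IC50 from nonlinear regression of reaction rates versus compound concentration.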

Human Factor D, sequence (P00746 26-253): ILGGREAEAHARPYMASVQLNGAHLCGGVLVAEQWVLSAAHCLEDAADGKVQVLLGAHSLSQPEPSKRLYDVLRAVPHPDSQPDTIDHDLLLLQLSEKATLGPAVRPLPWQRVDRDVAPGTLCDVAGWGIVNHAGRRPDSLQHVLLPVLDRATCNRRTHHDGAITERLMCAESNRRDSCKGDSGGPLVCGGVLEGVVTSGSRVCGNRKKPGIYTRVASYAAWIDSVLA

Usually IC50 stands for the point on the concentration scale where inhibition reaches its midpoint. Read a low IC50 as greater potency. Compound `CC(=O)c1cn(CC(=O)N2[C@H](C(=O)Nc3nc(C(F)(F)F)cc(F)c3C)C[C@@]3(C)C[C@@H]23)c2c(C)cc(-c3ccc4nc(C)nn4c3)cc12` [Compound 58, (1R,3S,5R)-2-(2-(3-acetyl-7-methyl-5-(2-methyl-[1,2,4]triazolo[1,5-a]pyr-idin-6-yl)-1H-indol-1-yl)-acetyl)-N-(4-fluoro-3-methyl-6-(trifluorometh-yl)pyridin-2-yl)-5-methyl-2-azabicyclo[3.1.0]hexane-3-carboxamide] came in with an IC50 of less than 1 µM. Compound `CC(=O)c1cn(CC(=O)N2[C@H](C(=O)Nc3nc(C(F)(F)F)cnc3C)C[C@@]3(C)C[C@@H]23)c2c(C)cc(-c3cnc(C)nc3)cc12` [Compound 59, (1R,3S,5R)-2-(2-(3-acetyl-7-methyl-5-(2-methylpyr-imidin-5-yl)-1H-indol-1-yl)acetyl)-5-methyl-N-(3-methyl-6-(trifluorometh-yl)pyrazin-2-yl)-2-azabi-cyclo[3.1.0]hexane-3-car-boxamide] gave an IC50 of 1 to 10 µM.

The compound `CC(=O)c1cn(CC(=O)N2[C@H](C(=O)Nc3nc(C(F)(F)F)cnc3C)C[C@@]3(C)C[C@@H]23)c2c(C)cc(-c3cnc4cc(C)nn4c3)cc12` [Compound 60, (1R,3S,5R)-2-(2-(3-acetyl-7-methyl-5-(2-methylpyr-azolo[1,5-a]pyrimidin-6-yl)-1H-indol-1-yl)acetyl)-5-methyl-N-(3-methyl-6-(trifluoromethyl)pyrazin-2-yl)-2-azabicyclo[3.1.0] hexane-3-carboxamide] returned an IC50 of less than 1 µM. Regarding `CC(=O)c1cn(CC(=O)N2C[C@@](F)(CF)C[C@H]2C(=O)Nc2nc(C(F)(F)F)ccc2C)c2c(C)cc(-c3cnc(C)nc3)cc12` [Compound 61, (2S,4R)-1-(2-(3-acetyl-7-methyl-5-(2-methylpyrim-idin-5-yl)-1H-indol-1-yl)-acetyl)-4-fluoro-4-(fluoro-methyl)-N-(3-methyl-6-(trifluoromethyl)pyridin-2-yl)pyrrolidine-2-carbox-amide], the IC50 is less than 1 µM. For `CC(=O)c1cn(CC(=O)N2C[C@H]3C[C@H]3[C@H]2C(=O)Nc2nc(Br)ccc2C)c2c(C)cc(-c3cnc4cc(C)nn4c3)cc12` [Compound 63, (1R,2S,5S)-3-(2-(3-acetyl-7-methyl-5-(2-methylpyr-azolo[1,5-a]pyrimidin-6-yl)-1H-indol-1-yl)acetyl)-N-(6-bromo-3-methylpyr-idin-2-yl)-3-azabicyclo [3.1.0]hexane-2-carbox-amide] the value was less than 1 µM. For the compound `CC(=O)c1cn(CC(=O)N2[C@H](C(=O)Nc3ccn(CC(F)(F)F)n3)C[C@@]3(C)C[C@@H]23)c2c(C)cc(-c3cnc4cc(C)nn4c3)cc12` [Compound 64, (1R,3S,5R)-2-(2-(3-acetyl-7-methyl-5-(2-methylpyr-azolo[1,5-a]pyrimidin-6-yl)-1H-indol-1-yl)acetyl)-5-methyl-N-(1-(2,2,2-tri-fluoroethyl)-1H-pyrazol-3-yl)-2-azabicyclo[3.1.0] hexane-3-carboxamide], the IC50 was less than 1 µM.

In turn, `CC(=O)c1cn(CC(=O)N2[C@H](C(=O)Nc3ccn(CC(F)(F)F)n3)C[C@@]3(C)C[C@@H]23)c2c(C)cc(-c3ccc4nc(C)nn4c3)cc12` [Compound 65, (1R,3S,5R)-2-(2-(3-acetyl-7-methyl-5-(2-methyl-[1,2,4]triazolo[1,5-a]pyr-idin-6-yl)-1H-indol-1-yl)-acetyl)-5-methyl-N-(1-(2,2,2-trifluoroethyl)-1H-pyrazol-3-yl)-2-azabicyclo [3.1.0]hexane-3-carbox-amide] gave an IC50 of less than 1 µM. The compound `CC(=O)c1cn(CC(=O)N2C[C@H](F)C[C@H]2C(=O)Nc2ccn(CC(F)(F)F)n2)c2c(C)cc(-c3cnc4cc(C)nn4c3)cc12` [Compound 66, (2S,4R)-1-(2-(3-acetyl-7-methyl-5-(2-methylpyr-azolo[1,5-a]pyrimidin-6-yl)-1H-indol-1-yl)acetyl)-4-fluoro-N-(1-(2,2,2-tri-fluoroethyl)-1H-pyrazol-3-yl)pyrrolidine-2-carbox-amide] showed an IC50 of less than 1 µM. On to `CC(=O)c1cn(CC(=O)N2C[C@H](F)C[C@H]2C(=O)Nc2ccn(CC(F)(F)F)n2)c2ccc(-c3cnc4cc(C)nn4c3)cc12` [Compound 67, (2S,4R)-1-(2-(3-acetyl-5-(2-methylpyrazolo[1,5-a]pyrimidin-6-yl)-1H-indol-1-yl)acetyl)-4-fluoro-N-(1-(2,2,2-trifluoroethyl)-1H-pyrazol-3-yl)pyrrolidine-2-carboxamide], for which the IC50 was less than 1 µM. `CC(=O)c1cn(CC(=O)N2[C@H](C(=O)Nc3nc(Br)ccc3Cl)C[C@@]3(C)C[C@@H]23)c2c(C)cc(-c3cnc(C)nc3)cc12` [Compound 68, (1R,3S,5R)-2-(2-(3-acetyl-7-methyl-5-(2-methylpyr-imidin-5-yl)-1H-indol-1-yl)acetyl)-N-(6-bromo-3-chloropyridin-2-yl)-5-methyl-2-azabicyclo[3.1.0] hexane-3-carboxamide] returned an IC50 of less than 1 µM.

With `CC(=O)c1nn(CC(=O)N2[C@H](C(=O)Nc3nc(Br)ccc3C)C[C@@]3(C)C[C@@H]23)c2cc3c(cc12)-c1cnc(C)nc1C=CC3` [Compound 69, (1R,3S,5R)-2-(2-(11-acet-yl-3-methylpyrimido [4′,5′:6,7]cyclohepta[1,2-f]indazol-9(7H)-yl)acetyl)-N-(6-bromo-3-methylpyr-idin-2-yl)-5-methyl-2-aza-bicyclo[3.1.0]hexane-3-carboxamide], the IC50 was less than 1 µM. The same measure for `CC(=O)c1cn(CC(=O)N2[C@H](C(=O)Nc3nc(C(F)(F)F)c(F)cc3C)C[C@@]3(C)C[C@@H]23)c2c(C)cc(-c3cnc(C)nc3)cc12` [Compound 71, (1R,3S,5R)-2-(2-(3-acetyl-7-methyl-5-(2-methylpyr-imidin-5-yl)-1H-indol-1-yl)acetyl)-N-(5-fluoro-3-methyl-6-(trifluorometh-yl)pyridin-2-yl)-5-methyl-2-azabicyclo[3.1.0]hexane-3-carboxamide]: less than 1 µM.

In the case of `[2H]C([2H])([2H])OC([2H])([2H])c1ccc(C(F)(F)F)nc1NC(=O)[C@@H]1C[C@@]2(C)C[C@H]2N1C(=O)Cn1cc(C(C)=O)c2cc(-c3cnc4cc(C)nn4c3)cc(C)c21` [Compound 80, (1R,3S,5R)-2-(2-(3-acetyl-7-methyl-5-(2-methylpyr-azolo[1,5-a]pyrimidin-6-yl)-1H-indol-1-yl)acetyl)-N-(3-((methoxy-d3)meth-yl-d2)-6-(trifluoromethyl)-pyridin-2-yl)-5-methyl-2-azabicyclo[3.1.0]hexane-3-carboxamide], the IC50 is less than 1 µM. `[2H]C([2H])([2H])OCc1ccc(C(F)(F)F)nc1NC(=O)[C@@H]1C[C@@]2(C)C[C@H]2N1C(=O)Cn1cc(C(C)=O)c2cc(-c3ccc4nc(C)nn4c3)cc(C)c21` [Compound 81, (1R,3S,5R)-2-(2-(3-acetyl-7-methyl-5-(2-methyl-[1,2,4]triazolo[1,5-a]pyr-idin-6-yl)-1H-indol-1-yl)-acetyl)-N-(3-((methoxy-d3)methyl-d2)-6-(trifluoro-methyl)pyridin-2-yl)-5-methyl-2-azabicyclo[3.1.0] hexane-3-carboxamide]: the IC50 was less than 1 µM. `CC(=O)c1nn(CC(=O)N(C)[C@@H](C)C(=O)Nc2nc(Br)ccc2C)c2cc3c(cc12)-c1cnc(C)nc1CC=C3` [Compound 109, (S)-2-(2-(11-acetyl-3-methylpyrimido[4′,5′:6,7]cyclohepta[1,2-f]indazol-9(5H)-yl)-N-methylacetamido)-N-(6-bromo-3-methylpyridin-2-yl)propanamide] had an IC50 of less than 1 µM.

For `CC(=O)c1nn(CC(=O)N(C)[C@@H](C)C(=O)Nc2nc(Br)ccc2C)c2cc3c(cc12)-c1cnc(C)nc1C=CC3` [Compound 110, (S)-2-(2-(11-acetyl-3-methylpyrimido[4′,5′:6,7]cyclohepta[1,2-f]indazol-9(7H)-yl)-N-methylacetamido)-N-(6-bromo-3-methylpyridin-2-yl)propanamide], the IC50 is less than 1 µM.
